Experimental data published in patent US8912146B2, “Derivatives of APF and methods of use” (University of Maryland, Baltimore, priority 2008, dated 2014).
*1 amine or outer side, *2 acyl side, *3 side chain or, on linkers, in order; H or OH if unused. Where a SMILES comes first, the peptide text is derived from it. [ ]: non-standard residue; d: D form. The star is where a group is joined. ξ: configuration not given here. X1 = CC(=O)NC1C(O[C@@H]2OC(CO)[C@H](O)C(O)C2O)[C@@H](O)C(CO)O[C@@H]1*; X4 = CC1(C)OC[C@@H](C(=O)[*:2])N1[*:1]; X3 = O=C([C@@H]1CC(O)CN1[*:1])[*:2]; Thr(3ξ) = CC(O)[C@H](N)C(=O)O; ξY = NC(Cc1ccc(O)cc1)C(=O)O; ξL = CC(C)CC(N)C(=O)O; ξV = CC(C)C(N)C(=O)O; ξA = CC(N)C(=O)O

Tested on: primary normal human bladder epithelial cells
Test: 3H-thymidine incorporation (antiproliferative activity) in primary normal bladder epithelial cells
Format: cell-based
Details: for % of activity: relative to 1 (as-APF) run on the same plate, from IC50, inactive = no significant activity at <25 μM
Method: Cell Culture. Cystoscopy was performed under general anesthesia, and 4-mm^2 pieces of transitional epithelium with submucosal bladder tissue were obtained for the growth of primary bladder epithelial cells, as previously described (Keay et al., 1996; 2004). Primary normal bladder epithelial cells were propagated in DMEM-F12 (Media-Tech, Herndon Va.) with 10% heat-inactivated fetal bovine serum (FBS), 1% antibiotic/antimycotic solution, 1% L-glutamine, 0.25 units/mL insulin (all from Sigma, St. Louis, Mo.), and 5 ng/mL hEGF (R&D Systems, Minneapolis, Minn.) at 37° C. in a 5% CO2 atmosphere and characterized by binding of AE-1/AE-3 pancytokeratin antibodies (Signet, Dedham, Mass.).
^3H-Thymidine Incorporation. Cell proliferation was measured by ^3H-thymidine incorporation into explanted normal human bladder epithelial cells, plating 1.5×10^4 cells/well onto a 96 well cell culture plate (VWR 29442-054), in 150 ul/well MEM containing 10% heat inactivated FBS, 1% antibiotic/antimycotic solution, and 1% L-glutamine (all from Sigma), resulting in a doubling time of 48-72 hours, as previously described (Keay et al., 1996; 2004). Each purified lyophilized synthetic APF congener was resuspended in acetonitrile/distilled water (1:1), and applied to the cells in serum-free MEM (containing only L-glutamine and antibiotics/antimycotics); cell controls received acetonitrile/distilled water diluted in serum-free MEM alone. Cells were then incubated at 37° C. in a 5% CO2 atmosphere for 48 hours. The cell contents harvested and methanol-fixed onto glass fiber filter paper, and the amount of radioactivity incorporated determined. Significant inhibition of ^3H-thymidine incorporation was defined as a mean decrease in counts per minute of greater than 2 standard deviations from the mean of control cells for each plate. Inhibition of cell proliferation was determined from a semi-log plot of dose-response for each APF derivative; IC50 was determined as the concentration of each derivative that caused a mean 50% inhibition of thymidine incorporation as compared to the mean of untreated cell controls.
Statistical Analysis. The thymidine incorporation (APF biological activity) assay was performed in triplicate on at least two separate runs, with 1 run simultaneously in triplicate on the same plate. The significance of the difference between mean values for each congener vs. mean values for compound 1 was determined by an analysis of variance.

## CC(=O)NC1C(O[C@@H]2OC(CO)[C@H](O)C(O)C2O)[C@@H](O)C(CO)O[C@@H]1OC[C@H](N)C(=O)NC(CC(C)C)C(=O)N1CCC[C@H]1C(=O)NC(C)C(=O)N[C@@H](C)C(=O)NC(C(=O)N[C@H](C(=O)NC(C(=O)N[C@@H](C)C(=O)O)C(C)C)C(C)C)C(C)C (stereo partly shown) [Derivative 2] (H-S(X1)[ξL]P[ξA]A[ξV]V[ξV]A-OH)
  antiproliferative activity compared with as-APF (1), in words: two orders of magnitude loss of potency
  % of activity: 1%

## CC(=O)NC1C(O[C@@H]2OC(CO)[C@H](O)C(O)C2O)[C@@H](O)C(CO)O[C@@H]1OC[C@H](N)C(=O)NC(C(=O)N1CCC[C@H]1C(=O)NC(C)C(=O)N[C@@H](C)C(=O)NC(C(=O)N[C@H](C(=O)NC(C(=O)N[C@@H](C)C(=O)O)C(C)C)C(C)C)C(C)C)C(C)C (stereo partly shown) [Derivative 3] (H-S(X1)[ξV]P[ξA]A[ξV]V[ξV]A-OH)
  antiproliferative activity compared with as-APF (1), in words: 4 orders of magnitude
  % of activity: 0.01%

## CC(=O)NC1C(O[C@@H]2OC(CO)[C@H](O)C(O)C2O)[C@@H](O)C(CO)O[C@@H]1OC(C)[C@H](N)C(=O)NC(CC(C)C)C(=O)N1CCC[C@H]1C(=O)NC(C)C(=O)N[C@@H](C)C(=O)NC(C(=O)N[C@H](C(=O)NC(C(=O)N[C@@H](C)C(=O)O)C(C)C)C(C)C)C(C)C (stereo partly shown) [Derivative 4] (H-[Thr(3ξ)](X1)[ξL]P[ξA]A[ξV]V[ξV]A-OH)
  antiproliferative activity compared with as-APF (1), in words: inactivation
  % of activity: inactive

## CC(=O)NC1C(O[C@@H]2OC(CO)[C@H](O)C(O)C2O)[C@@H](O)C(CO)O[C@@H]1OC(C)[C@H](NC(=O)C(N)Cc1ccc(O)cc1)C(=O)NC(CC(C)C)C(=O)N1CCC[C@H]1C(=O)NC(C)C(=O)N[C@@H](C)C(=O)NC(C(=O)N[C@H](C(=O)NC(C(=O)N[C@@H](C)C(=O)O)C(C)C)C(C)C)C(C)C (stereo partly shown) [Derivative 6] (H-[ξY][Thr(3ξ)](X1)[ξL]P[ξA]A[ξV]V[ξV]A-OH)
  antiproliferative activity compared with as-APF (1), in words: approximately 2 orders of magnitude loss of potency
  % of activity: 1%

## CC(=O)NC1C(O[C@@H]2OC(CO)[C@H](O)C(O)C2O)[C@@H](O)C(CO)O[C@@H]1OC(C)[C@H](N)C(=O)NC(Cc1ccc(O)cc1)C(=O)N1CCC[C@H]1C(=O)NC(C)C(=O)N[C@@H](C)C(=O)NC(C(=O)N[C@H](C(=O)NC(C(=O)N[C@@H](C)C(=O)O)C(C)C)C(C)C)C(C)C (stereo partly shown) [Derivative 7] (H-[Thr(3ξ)](X1)[ξY]P[ξA]A[ξV]V[ξV]A-OH)
  antiproliferative activity compared with as-APF (1), in words: complete inactivation
  % of activity: inactive

## CC(=O)NC1C(O[C@@H]2OC(CO)[C@H](O)C(O)C2O)[C@@H](O)C(CO)O[C@@H]1OC(C)[C@H](N)C(=O)NC(C(=O)N1[C@H](C(=O)NC(C)C(=O)N[C@@H](C)C(=O)NC(C(=O)N[C@H](C(=O)NC(C(=O)N[C@@H](C)C(=O)O)C(C)C)C(C)C)C(C)C)COC1(C)C)C(C)C (stereo partly shown) [Derivative 9] (H-[Thr(3ξ)](X1)[ξV][X4][ξA]A[ξV]V[ξV]A-OH)
  antiproliferative activity compared with as-APF (1), in words: completely abolished activity
  % of activity: inactive

## CC(=O)NC1C(O[C@@H]2OC(CO)[C@H](O)C(O)C2O)[C@@H](O)C(CO)O[C@@H]1OC(C)[C@H](N)C(=O)NC(C(=O)N[C@@H](C)C(=O)NC(C)C(=O)N[C@@H](C)C(=O)NC(C(=O)N[C@H](C(=O)NC(C(=O)N[C@@H](C)C(=O)O)C(C)C)C(C)C)C(C)C)C(C)C (stereo partly shown) [Derivative 11] (H-[Thr(3ξ)](X1)[ξV]A[ξA]A[ξV]V[ξV]A-OH)
  antiproliferative activity compared with as-APF (1), in words: 2-3 orders of magnitude decrease
  % of activity: 0.3%

## CC(=O)NC1C(O[C@@H]2OC(CO)[C@H](O)C(O)C2O)[C@@H](O)C(CO)O[C@@H]1OC(C)[C@H](N)C(=O)NC(C(=O)N1CC(O)C[C@H]1C(=O)NC(C)C(=O)N[C@@H](C)C(=O)NC(C(=O)N[C@H](C(=O)NC(C(=O)N[C@@H](C)C(=O)O)C(C)C)C(C)C)C(C)C)C(C)C (stereo partly shown) [Derivative 12] (H-[Thr(3ξ)](X1)[ξV][X3][ξA]A[ξV]V[ξV]A-OH)
  antiproliferative activity compared with as-APF (1), in words: 2-3 orders of magnitude decrease
  % of activity: 0.3%
